PubChem BioAssay AID248 (DTP/NCI, 2004)
Values joined by “and” are separate entries in the source; they are usually repeats but may differ in a detail not shown here. Equal values may be shown once. Toxic doses and inconclusive results are not listed. Cut-off read from the data, not from the text of the source: active = T/C of 150% or more; inactive = T/C below 125%.

Test system: L1210 leukemia ip in BDF1 mice, survival T/C
Test: NCI In Vivo Anticancer Drug Screen. Data for tumor model L1210 Leukemia (intraperitoneal) in B6D2F1 (BDF1) mice
Conditions: endpoint: mean survival time, higher = longer survival
Outline: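 In this screen, tumor-bearing mice given compound are compared to those given vehicle, and their survival values are reported as a treated-to-control quotient.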

[1] = dose: 100.0 mg/kg/injection, schedule: Q01DX001 (ip), vehicle: saline with Tween-80
[2] = dose: 100.0 mg/kg/injection, schedule: Q04DX002 (ip), vehicle: Klucel (hydroxypropylcellulose) (HPC)
[3] = dose: 200.0 mg/kg/injection, schedule: Q04DX002 (ip), vehicle: Klucel (hydroxypropylcellulose) (HPC)
[4] = dose: 400.0 mg/kg/injection, schedule: Q04DX002 (ip), vehicle: Klucel (hydroxypropylcellulose) (HPC)

Measured: T/C

COC1OC(C)C(O)C(O)[CH]1[Hg][O]C(C)=O (stereo unspecified)
inactive: dose: 3.12 mg/kg/injection, schedule: Q01DX009 (ip), vehicle: saline 113 % of control | dose: 5.0 mg/kg/injection, schedule: Q01DX001 (ip), vehicle: saline 110 % of control | dose: 6.25 mg/kg/injection, schedule: Q01DX009 (ip), vehicle: saline 89 % of control | dose: 6.25 mg/kg/injection, schedule: Q04DX003 (ip), vehicle: saline 102 % of control | dose: 10.0 mg/kg/injection, schedule: Q01DX001 (ip), vehicle: saline 103 % of control | dose: 12.5 mg/kg/injection, schedule: Q04DX003 (ip), vehicle: saline 106 % of control

CC(=O)N/N=C(/C)c1cccs1
inactive: dose: 100.0 mg/kg/injection, schedule: Q01DX001 (ip), vehicle: saline 103 % of control | dose: 200.0 mg/kg/injection, schedule: Q01DX001 (ip), vehicle: saline 109 % of control | dose: 400.0 mg/kg/injection, schedule: Q01DX001 (ip), vehicle: saline 100 % of control

N=c1nc(N)nc2c3ccccc3nnn12
inactive: dose: 75.0 mg/kg/injection, schedule: Q01DX001 (ip), vehicle: other 105 % of control | dose: 150.0 mg/kg/injection, schedule: Q01DX001 (ip), vehicle: other 106 % of control

Cc1cc(NC(=O)Nc2ccc(Cl)cc2C)no1
inactive: dose: 12.5 mg/kg/injection, schedule: Q01DX009 (ip), vehicle: Klucel (hydroxypropylcellulose) (HPC) 102 % of control | dose: 25.0 mg/kg/injection, schedule: Q01DX009 (ip), vehicle: Klucel (hydroxypropylcellulose) (HPC) 97 % of control | dose: 50.0 mg/kg/injection, schedule: Q01DX009 (ip), vehicle: Klucel (hydroxypropylcellulose) (HPC) 91 % of control

C=C1CC(Cc2ccccc2)OC1=O (stereo unspecified)
inactive: [1] 94 % of control

CCOC(=O)CNC(=O)C(OC(C)=O)C(OC(C)=O)C(=O)O (stereo unspecified)
inactive: dose: 100.0 mg/kg/injection, schedule: Q04DX003 (ip), vehicle: water 97 % of control | dose: 200.0 mg/kg/injection, schedule: Q04DX003 (ip), vehicle: water 92 % of control | dose: 400.0 mg/kg/injection, schedule: Q04DX003 (ip), vehicle: water 92 % of control

ClC1(Cl)C2(c3ccccc3)OC(c3ccccc3)(c3ccccc32)C1(Cl)Cl
inactive: [2] 97 % of control | [3] 97 % of control | [4] 102 % of control

O=C(Nc1ccccc1)Nc1cccc2ccccc12
inactive: dose: 100.0 mg/kg/injection, schedule: Q04DX002 (ip), vehicle: gum acacia 102 % of control | dose: 200.0 mg/kg/injection, schedule: Q04DX002 (ip), vehicle: gum acacia 94 % of control | dose: 400.0 mg/kg/injection, schedule: Q04DX002 (ip), vehicle: gum acacia 94 % of control

O=C1C=C(O)C2=C(CCCC2)C1=O
inactive: dose: 100.0 mg/kg/injection, schedule: Q01DX001 (ip), vehicle: water 96 % of control

c1ccc(-c2nc3ccccc3[nH]2)cc1
inactive: dose: 55.0 mg/kg/injection, schedule: Q01DX Z (ip), vehicle: methylcellulose (MC) 107 % of control | dose: 83.0 mg/kg/injection, schedule: Q01DX Z (ip), vehicle: methylcellulose (MC) 103 % of control | [2] 109 % of control and 95 % of control | dose: 125.0 mg/kg/injection, schedule: Q01DX Z (ip), vehicle: methylcellulose (MC) 100 % of control | [3] 103 % of control and 106 % of control | [4] 109 % of control and 98 % of control

C[C@H]1C[C@H]2[C@@H]3CC[C@](O)(C(=O)CO)[C@@]3(C)C[C@H](O)[C@]2(F)[C@@]2(C)C=CC(=O)C=C12
inactive: dose: 25.0 mg/kg/injection, schedule: Q01DX001 (sc), vehicle: steriod suspending solution 103 % of control | dose: 50.0 mg/kg/injection, schedule: Q01DX001 (sc), vehicle: steriod suspending solution 100 % of control | dose: 50.0 mg/kg/injection, schedule: Q04DX003 (sc), vehicle: Klucel (hydroxypropylcellulose) (HPC) 88 % of control | dose: 100.0 mg/kg/injection, schedule: Q01DX001 (sc), vehicle: steriod suspending solution 94 % of control | dose: 100.0 mg/kg/injection, schedule: Q04DX003 (sc), vehicle: Klucel (hydroxypropylcellulose) (HPC) 98 % of control | dose: 200.0 mg/kg/injection, schedule: Q01DX001 (sc), vehicle: steriod suspending solution 98 % of control | dose: 200.0 mg/kg/injection, schedule: Q04DX003 (sc), vehicle: Klucel (hydroxypropylcellulose) (HPC) 90 % of control

CC(=O)c1cccc(N=C=O)c1
inactive: dose: 25.0 mg/kg/injection, schedule: Q01DX001 (ip), vehicle: saline with Tween-80 101 % of control | dose: 50.0 mg/kg/injection, schedule: Q01DX001 (ip), vehicle: saline with Tween-80 93 % of control | [1] 111 % of control
